Experimental data from PubChem BioAssay (NCI).
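Compound exposure: 48 hours, 5 concentrations, 96-well plates. Here, GI50 denotes the concentration required for 50% inhibition of growth. At the TGI there is no net growth.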

What was measured:
Assay in all cases: NCI anticancer screen, dose series, 48 h
M14 melanoma = system: M14 melanoma
SW-620 colon = system: SW-620 colon
MALME-3M melanoma = system: MALME-3M melanoma
TK-10 renal = system: TK-10 renal
SF-539 CNS = system: SF-539 CNS
EKVX NSCLC = system: EKVX NSCLC
SF-268 CNS = system: SF-268 CNS
KM12 colon = system: KM12 colon
HCT-15 colon = system: HCT-15 colon
NCI-H226 lung = system: NCI-H226 lung

Row | Compound | TGI (M14 melanoma) [µM] | TGI (SW-620 colon) [µM] | TGI (MALME-3M melanoma) [µM] | TGI (TK-10 renal) [µM] | TGI (SF-539 CNS) [µM] | TGI (EKVX NSCLC) [µM] | TGI (SF-268 CNS) [µM] | TGI (KM12 colon) [µM] | TGI (HCT-15 colon) [µM] | TGI (NCI-H226 lung) [µM] | GI50 (M14 melanoma) [µM] | GI50 (MALME-3M melanoma) [µM] | GI50 (EKVX NSCLC) [µM] | GI50 (SF-268 CNS) [µM] | GI50 (SW-620 colon) [µM] | GI50 (TK-10 renal) [µM] | GI50 (SF-539 CNS) [µM] | GI50 (NCI-H226 lung) [µM] | GI50 (KM12 colon) [µM] | GI50 (HCT-15 colon) [µM]
1 | C[N+]1(C)C/C(=C\c2ccc(O)cc2)C(=O)/C(=C/c2ccc(O)cc2)C1 | > 100 | > 100 | > 100 | > 100 | > 100 | > 100 | > 100 | > 100 | > 100 | – | – | – | – | – | – | – | – | – | – | –
2 | NC(=S)N/N=C1\CC(c2ccccc2)Nc2ccccc21 (stereo not given) | > 100 | > 100 | 97 | > 100 | > 100 | > 100 | > 100 | – | > 100 | > 100 | – | – | – | – | – | – | – | – | – | –
3 | COc1ccc(OC)c([N+](=O)[O-])c1-c1nc2sc(C)c(C)n2c1/C=N/N=C(N)N | > 100 | > 100 | > 100 | > 100 | > 100 | > 100 | > 100 | 50.9 | > 100 | > 100 | – | – | – | – | – | – | – | – | – | –
4 | Nc1ccc(S(=O)(=O)NCCS(=O)(=O)O)cc1 | > 100 | > 100 | > 100 | > 100 | – | > 100 | > 100 | > 100 | > 100 | > 100 | – | – | – | – | – | – | – | – | – | –
5 | CC(=O)C(N=NC1CCC(S(=O)(=O)NB2N=CS2)CC1)C(=O)Nc1ccccc1C (stereo not given) | 35.5 | 30 | 30.5 | 58.6 | 32.4 | 41.2 | 30.8 | 30.1 | 22.3 | 31.4 | – | – | – | – | – | – | – | – | – | –
6 | CC(=O)c1c(C)cc2cccc(OC3OC(CO)C(O)C(O)C3O)c2c1O (stereo not given) (tested in a mixture with another compound) | > 100 | > 100 | > 100 | > 100 | > 100 | > 100 | > 100 | > 100 | > 100 | > 100 | – | – | – | – | – | – | – | – | – | –
7 | COc1cc(O)c2c(=O)c(OC)c(-c3ccc(OC)c(OC)c3)oc2c1.[Zn+2] | > 100 | > 100 | > 100 | > 100 | > 100 | > 100 | > 100 | – | – | > 100 | 45.4 | 33.3 | 25.7 | 12.9 | – | – | – | – | – | –
8 | C=C(C[C@@H](O)[C@H](C)NC(=O)OCc1ccccc1)C(=O)OC(C)(C)C | > 100 | > 100 | > 100 | > 100 | > 100 | > 100 | > 100 | > 100 | > 100 | > 100 | – | – | – | – | – | – | – | – | – | –
9 | CCCCCCCCc1ccc(CCC(N)(CO)CO)cc1 | – | 3.08 | 5.8 | 3.58 | 3.39 | 5.8 | – | 3.44 | 3.42 | 3.42 | – | 2.32 | 2.36 | – | 1.64 | 1.89 | 1.85 | 1.77 | 1.93 | 1.68
10 | C[N+]1(c2ccccc2)C=C(c2ccccc2)SC1=S (stereo not given) | > 100 | > 100 | > 100 | > 100 | > 100 | > 100 | > 100 | > 100 | > 100 | > 100 | – | – | – | – | – | – | – | – | – | –
11 | O=S(=O)([O-])[O-].[Fe+2].[OH2+]c1c(Cl)cc(Cl)cc1/C=N/Nc1ccccn1 | 7.44 | 3.49 | 3.57 | 2.33 | 1.27 | 2.25 | 1.94 | 2.75 | 3.48 | 4.41 | – | – | – | – | – | 1.01 | – | – | – | –
12 | CC(=O)Oc1cc(/C=C/c2ccc(O)cc2)cc(OC(C)=O)c1 | > 100 | > 100 | > 100 | > 100 | 41.5 | – | > 100 | > 100 | > 100 | 86.9 | – | – | – | – | – | – | – | – | – | –
13 | Cc1ncc(COP(=O)(O)O)c(C)c1O | > 100 | > 100 | > 100 | > 100 | – | > 100 | > 100 | > 100 | > 100 | > 100 | – | – | – | – | – | – | – | – | – | –
14 | Cc1cccc(/C=C2/C(=O)Nc3ccccc32)n1 | 31.2 | 49.7 | 49.1 | 33.7 | 51.4 | 71.9 | 42.5 | 35.4 | > 68.9 | 35.9 | – | – | – | – | – | – | – | 14.6 | – | –
